Reference: patent publication US20260256792A1, “TREATMENT OF CHRONIC SPONTANEOUS URTICARIA BY ADMINISTERING (R)-2-[3-[4-AMINO-3-(2-FLUORO-4-PHENOXY-PHENYL)PYRAZOLO[3,4-D]PYRIMIDIN-1-YL]PIPERIDINE-1-CARBONYL]-4-METHYL-4-[4-(OXETAN-3-YL)PIPERAZIN-1-YL]PENT-2-ENENITRILE” (priority 2023, published 2026)

Test system: moderate-to-severe chronic spontaneous urticaria (CSU)
Assay: Phase 2 CSU study: itch severity score over 7 days (ISS7)
Type: in vivo, human
Excerpt: The study comprises a 12 week, randomized, double-blind, placebo-controlled, multi-center, dose-ranging efficacy and safety phase, followed by a 40 week open label extension (OLE) phase (see FIG. 1). The study consists of three phases and an optional OLE phase. […] Clinically, CSU is characterized by the spontaneous and recurrent appearance of pruritic hives. The proposed primary endpoints were the UAS7 at Week 12 in EU and EU reference countries and the ISS7 in the US. Regardless of where a participant was from, all assessments were the same. The UAS7 score is a composite score containing both the HSS7 and the ISS7. This allowed a global assessment of the two key components of urticaria: hives and itch. […] The UAS is a validated PRO measure. […] The daily UAS scores range from 0 to 6 point/day. […] Patients were to complete the UAS using the e-diary. […] The following secondary endpoints were to be analyzed using the same approach as for the primary endpoint: • Change from baseline in UAS7 at Week 4 • Change from baseline in UAS7 at Week 12 (for US and US reference countries) • Change from baseline in ISS7 at Week 12 (except US and US reference countries) • Change from baseline in HSS7 at Week 12

[1] = Omalizumab-naïve population, 400 mg BID (N = 35), double-blind period, last week block of Table 28 (week head not shown), WOCF imputation
[2] = Omalizumab-naïve population, 400 mg QPM (N = 37), double-blind period, last week block of Table 28 (week head not shown), WOCF imputation
[3] = Omalizumab-naïve population, 400 mg TID (N = 35), double-blind period, last week block of Table 28 (week head not shown), WOCF imputation
[4] = Patients with prior omalizumab use incl. incomplete responders, 400 mg TID (N = 6), double-blind period, last week block of Table 28 (week head not shown), WOCF imputation
[5] = Week 1, 400 mg BID, Omalizumab-Naïve
[6] = Week 1, 400 mg BID, Prior Omalizumab Use
[7] = Week 1, 400 mg QPM, Omalizumab-Naïve
[8] = Week 1, 400 mg QPM, Prior Omalizumab Use
[9] = Week 1, 400 mg TID, Omalizumab-Naïve
[10] = Week 1, 400 mg TID, Prior Omalizumab Use
[11] = Week 2, 400 mg BID, Omalizumab-Naïve

For CC(C)(C=C(C#N)C(=O)N1CCC[C@@H](n2nc(-c3ccc(Oc4ccccc4)cc3F)c3c(N)ncnc32)C1)N1CCN(C2COC2)CC1 [rilzabrutinib, (R)-2-[3-[4-amino-3-(2-fluoro-4-phenoxy-phenyl)pyrazolo[3,4-d]pyrimidin-1-yl]piperidine-1-carbonyl]-4-methyl-4-[4-(oxetan-3-yl)piperazin-1-yl]pent-2-enenitrile], the “ISS7 Post-baseline Mean (SD)” value (Omalizumab-Naïve, 400 mg TID, Week 5) was 6.92 (5.87), the “ISS7 Post-baseline Mean (SD)” value (Omalizumab-Naïve, 400 mg TID, Week 7) was 7.14 (5.35) and the “ISS7 Post-baseline Mean (SD)” value (Omalizumab-Naïve, 400 mg TID, Week 8) was 7.24 (5.51). For the same compound, the “ISS7 Post-baseline Mean (SD)” value (Omalizumab-Naïve, 400 mg TID, Week 9) was 6.68 (5.31), the “ISS7 Post-baseline Mean (SD)” value (Omalizumab-Naïve, 400 mg TID, Week 10) was 6.75 (5.25) and the “ISS7 Post-baseline Mean (SD)” value (Omalizumab-Naïve, 400 mg TID, Week 11) was 6.99 (5.53). For the same compound, the “ISS7 Post-baseline Mean (SD)” value (Omalizumab-Naïve, 400 mg TID, Week 12) was 5.77 (5.26), the “ISS7 Change from baseline Mean (SD)” value [1] was −6.60 (7.33) and the “ISS7 Change from baseline Median” value [1] was −8.00. The “ISS7 Percent change from baseline Mean (SD)” value (“ISS7 Percent change … (SD)” for short) [1] was −46.22 (56.25) %, the “ISS7 Percent change from baseline Median” value [1] was −53.33% and the “ISS7 change from baseline, Max” value [1] was 2.0. For the same compound, the “ISS7 change from baseline, Min” value [1] was −14.0, the “ISS7 change from baseline, Q1” value [1] was −13.00 and the “ISS7 change from baseline, Q3” value [1] was 0.00. The “ISS7 percent change from baseline, Max” value [1] was 22.2%, the “ISS7 percent change from baseline, Min” value [1] was −100.0% and the “ISS7 percent change from baseline, Q1” value [1] was −100.00%. For the same compound, the “ISS7 percent change from baseline, Q3” value [1] was 0.00%, the “ISS7 Change from baseline Mean (SD)” value [2] was −11.40 (8.46) and the “ISS7 Change from baseline Median” value [2] was −14.00. The “ISS7 Percent change … (SD)” value [2] was −66.19 (45.96) %, the “ISS7 Percent change from baseline Median” value [2] was −83.33% and the “ISS7 change from baseline, Max” value [2] was 0.0. For the same compound, the “ISS7 change from baseline, Min” value [2] was −20.0, the “ISS7 change from baseline, Q1” value [2] was −19.00 and the “ISS7 change from baseline, Q3” value [2] was 0.00. The “ISS7 percent change from baseline, Max” value [2] was 0.0%, the “ISS7 percent change from baseline, Min” value [2] was −100.0% and the “ISS7 percent change from baseline, Q1” value [2] was −100.00%. The “ISS7 percent change from baseline, Q3” value [2] was 0.00%, the “ISS7 Change from baseline Mean (SD)” value [3] was −6.20 (3.70) and the “ISS7 Change from baseline Median” value [3] was −7.00. For the same compound, the “ISS7 Percent change … (SD)” value [3] was −38.05 (24.78) %, the “ISS7 Percent change from baseline Median” value [3] was −47.37% and the “ISS7 change from baseline, Max” value [3] was 0.0. The “ISS7 change from baseline, Q1” value [3] was −9.00, the “ISS7 change from baseline, Q3” value [3] was −6.00 and the “ISS7 percent change from baseline, Max” value [3] was 0.0%. For the same compound, the “ISS7 percent change from baseline, Min” value [3] was −64.3%, the “ISS7 percent change from baseline, Q1” value [3] was −50.00% and the “ISS7 percent change from baseline, Q3” value [3] was −28.57%. The “ISS7 Change from baseline Mean (SD)” value [4] was −1.50 (2.12), the “ISS7 Change from baseline Median” value [4] was −1.50 and the “ISS7 Percent change … (SD)” value [4] was −18.75 (26.52) %. The “ISS7 Percent change from baseline Median” value [4] was −18.75%, the “ISS7 change from baseline, Max” value [4] was 0.0 and the “ISS7 change from baseline, Min” value [4] was −3.0. The “ISS7 change from baseline, Q1” value [4] was −3.00, the “ISS7 change from baseline, Q3” value [4] was 0.00 and the “ISS7 percent change from baseline, Max” value [4] was 0.0%. For the same compound, the “ISS7 percent change from baseline, Min” value [4] was −37.5%, the “ISS7 percent change from baseline, Q1” value [4] was −37.50% and the “ISS7 percent change from baseline, Q3” value [4] was 0.00%. The “ISS7 Change from baseline Mean (SD)” value [5] was −4.94 (4.65), the “ISS7 Change from baseline Median” value [5] was −4.00 and the “ISS7 Median” value [5] was 12.00. For the same compound, the “ISS7 Percent change … (SD)” value [5] was −33.91 (34.62) %, the “ISS7 Percent change from baseline Median” value [5] was −25.00% and the “ISS7 Change from baseline Mean (SD)” value [6] was −6.33 (5.82). For the same compound, the “ISS7 Change from baseline Median” value [6] was −4.50, the “ISS7 Median” value [6] was 13.00 and the “ISS7 Percent change … (SD)” value [6] was −35.93 (34.83) %. The “ISS7 Percent change from baseline Median” value [6] was −23.02%, the “ISS7 Change from baseline Mean (SD)” value [7] was −3.30 (4.93) and the “ISS7 Change from baseline Median” value [7] was −3.00. The “ISS7 Mean (SD)” value [7] was 13.08 (4.52), the “ISS7 Median” value [7] was 14.00 and the “ISS7 Percent change … (SD)” value [7] was −17.96 (28.66) %. For the same compound, the “ISS7 Percent change from baseline Median” value [7] was −19.05%, the “ISS7 Change from baseline Mean (SD)” value [8] was −8.00 (NC) and the “ISS7 Change from baseline Median” value [8] was −8.00. The “ISS7 Mean (SD)” value [8] was 13.00 (NC), the “ISS7 Median” value [8] was 13.00 and the “ISS7 Percent change … (SD)” value [8] was −38.10 (NC) %. The “ISS7 Percent change from baseline Median” value [8] was −38.10%, the “ISS7 Change from baseline Mean (SD)” value [9] was −6.17 (5.49) and the “ISS7 Change from baseline Median” value [9] was −5.00. For the same compound, the “ISS7 Mean (SD)” value [9] was 9.51 (5.64), the “ISS7 Median” value [9] was 9.00 and the “ISS7 Percent change … (SD)” value [9] was −38.58 (33.51) %. For the same compound, the “ISS7 Percent change from baseline Median” value [9] was −31.37%, the “ISS7 Change from baseline Mean (SD)” value [10] was −9.67 (5.32) and the “ISS7 Change from baseline Median” value [10] was −9.00. The “ISS7 Mean (SD)” value [10] was 7.33 (5.43), the “ISS7 Median” value [10] was 7.00 and the “ISS7 Percent change … (SD)” value [10] was −58.16 (26.72) %. For the same compound, the “ISS7 Percent change from baseline Median” value [10] was −66.07%, the “ISS7 Change from baseline Mean (SD)” value [11] was −5.00 (4.40) and the “ISS7 Change from baseline Median” value [11] was −5.00. For the same compound, the “ISS7 Mean (SD)” value [11] was 10.32 (5.64).
